Measurements from patent US8710098B2, “Group of amino substituted benzoyl derivatives and their preparation and their use” (priority 2008, dated 2014).

target: T1, hA3G degradation mediated by HIV-1 Vif (UniProt P69723+Q9HC16); experiment: Screening experiment for up-regulation activity to hA3G (YFP-fused hA3G co-expressed with HIV-1 Vif, fluorescence); type: cell-based, human; conditions: YFP fluorescence of cells co-expressing Vif and hA3G-YFP; excitation 485 nm, detection 520 nm; averages of duplicates
T1 construct: expressed in transfected cells
T1 sequence (P69723 whole entry, the tested form may be a part): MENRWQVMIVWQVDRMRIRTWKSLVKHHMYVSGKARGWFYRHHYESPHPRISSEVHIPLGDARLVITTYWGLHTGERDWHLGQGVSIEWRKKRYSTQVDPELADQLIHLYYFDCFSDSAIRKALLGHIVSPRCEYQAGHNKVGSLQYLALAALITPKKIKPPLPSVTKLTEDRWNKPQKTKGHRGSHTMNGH
T1 sequence (Q9HC16 whole entry, the tested form may be a part): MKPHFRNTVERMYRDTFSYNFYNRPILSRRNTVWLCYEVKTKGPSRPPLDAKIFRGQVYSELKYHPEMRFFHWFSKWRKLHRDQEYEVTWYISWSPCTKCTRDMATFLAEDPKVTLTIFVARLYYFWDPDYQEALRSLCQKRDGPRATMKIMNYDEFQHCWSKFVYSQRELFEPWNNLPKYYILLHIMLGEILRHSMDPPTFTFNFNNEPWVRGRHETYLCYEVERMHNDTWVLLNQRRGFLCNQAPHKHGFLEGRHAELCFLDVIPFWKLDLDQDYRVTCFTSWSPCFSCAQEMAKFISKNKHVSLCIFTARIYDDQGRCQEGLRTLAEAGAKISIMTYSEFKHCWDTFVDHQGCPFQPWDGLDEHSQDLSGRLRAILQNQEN
Excerpt: Based on the advances making research on the hA3G degradation mediated by HIV-1 Vif, this invention establishes a high throughput anti-HIV-1 drug screening model using hA3G degradation mediated by HIV-1 Vif as target, to screen small molecule active compounds capable of inhibiting this degradation process. The function principle of this model is that HIV-1 Vif protein and hA3G fused yellow fluorescent protein (YFP) co-expressed in the cells, then the intracellular fluorescence intensity (at […]) decreases owing to the degradation of hA3G caused by Vif and subsequent degradation of YEP fused on hA3G. By means of measuring the change of fluorescent intensity, the influence of the screened compounds on the degradation of hA3G caused by Vif can quantitatively be analyzed. Simultaneously, to differentiate the non-specific inhibitory effect of diverse ubiquitin degradation route in the samples, this invention establishes a recheck model based on the detection of P53 degradation caused by the product of adenovirus early gene, to assure that the positive samples screened out by the proposed model can specifically block the degradation of hA3G caused by Vif.
Screening Experiment for Up-Regulation Activity to hA3G
The cells are picked up and cultured a culture bottle. When the cells grow full of the culture bottle, old culture medium is discarded and the cells are digested with digestion medium. When the cells turn round, the digestion medium is discarded and the culture medium is added in at once, the bottom of the bottle is gently blown with a pipette to make the cells disengage the bottle bottom and disperse into single cell suspension. After counting the cells using blood cell counting chamber, the cell suspension is inoculated into a culture dish for transfection. The medium containing the plasmid to be transfected and the transfection reagents is gently mixed up and incubated at room temperature. The medium is then added into the supernatant of the cell culture and cultured for a certain period of time. The old culture medium is then sucked out, the cells are digested with digestive medium, the digestive medium is subsequently discarded and culture medium is immediately added. The medium is gently blown to disperse the cells into single cell suspension. After counting the cells using blood cell counting chamber, the cells are ready for inoculation.
Samples of compounds[…]Pure tested compounds are dissolved in DMSO, the solution is diluted with equal proportional distilled water. The diluent is used to test the cell systems.
Sample solution of different concentration is added into the supernatant of a cell culture. After the cells are continuously cultured, old culture medium is sucked out and the cells are blown with PBS buffer until the cells completely disengage from the culture bottle.
The fluorescence intensity values of the cell suspension with test compound samples, positive control samples and negative control samples are respectively measured with fluorometer, the excitation wavelength is 485 nm and the detection wavelength 520 nm. Averages of duplicated measurements are taken as the results.
The measured fluorescence intensity values of the negative control samples (blink sample) subtracted from those of test compound samples, the results are taken as YFP fluorescence of different groups. Relative fluorescence intensity=fluorescence intensity of a test sample group/fluorescence intensity of the positive control group×100% Inhibition rate of degradation=(test sample group−negative control group)/(positive control group−negative control group)×100%

Row | Structure (SMILES) | hA3G up-regulation activity (%)
1 | COc1ccc(C(=O)Cc2cc(OC)c(OC)c(OC)c2)cc1NC(=O)C(C)Cl (centres unmarked) [Compound 16] | 17.3
2 | COc1cc(NC(=O)c2ccc(OC)c(N(C)C)c2)cc(OC)c1 [Compound 41] | 21.8
3 | CNc1cc(CNc2cc(OC)c(OC)c(OC)c2)ccc1OC [Compound 45] | 27.6
4 | COc1ccc(C(=O)Nc2cc(OC)c(OC)c(OC)c2)cc1NC(=O)CBr [Compound 29] | 25.3
5 | CCC(=O)Nc1cc(C(=O)Nc2ccc(S(N)(=O)=O)c(OC)c2)ccc1OC [Compound 99] | 23.6
6 | CCC(=O)Nc1cc(C(=O)Nc2ccc(OC)c(F)c2)ccc1OC [Compound 78] | 8.8
7 | CCC(=O)Nc1cc(C(=O)Sc2cc(OC)c(OC)c(OC)c2)ccc1OC [Compound 9, S-(3′,4′,5′-trimethoxyphenyl) 3-propionamido-4-methoxybenzenecarbothiolate] | 46.5
8 | CCC(Br)C(=O)Nc1cc(C(=O)Nc2cc(OC)c(OC)c(OC)c2)ccc1OC (centres unmarked) [Compound 31] | 26.4
9 | CCC(=O)Nc1cc(C(=O)Nc2cc(OC)co2)ccc1OC [Compound 48, N-(4′-methoxyfuryl-2′-)-4-methoxy-3-propionamidobenzamide] | 16.4
10 | COc1ccc(C(=O)Oc2cc(OC)c(OC)c(OC)c2)cc1NS(C)(=O)=O [Compound 103, 3′,4′,5′-trimethoxyphenyl 3-methanesulfamido-4-methoxybenzoate] | 26.1
11 | CCC(=O)Nc1cc(C(=O)Nc2cc(OC)nc(OC)n2)ccc1OC [Compound 33] | 21.5
12 | COc1ccc(C(=O)Oc2cc(OC)c(OC)c(OC)c2)cc1NC(C)=O [Compound 12] | 31.6
13 | CCC(=O)Nc1cc(C(=O)Nc2ccc(OC(F)(F)F)cc2)ccc1OC [Compound 67] | 11.3
14 | CCC(=O)Nc1cc(C(=O)Nc2cc(OC)c(OC)c(OC)c2)c(F)cc1OC [Compound 79, N-(3′,4′,5′-trimethoxyphenyl)-3-propionamido-4-methoxy-6-fluorobenzamide] | 21.6
15 | CCC(=O)Nc1cc(C(=O)Nc2cc(OC)c(O)c(OC)c2)ccc1OC [Compound 58] | 16.6
16 | COc1cc(OC(=O)c2cc(Cl)cc(NC(C)=O)c2)cc(OC)c1OC [Compound 72] | 24.3
17 | COc1cc(OC(=O)c2cc(NC(C)=O)cc(C(F)(F)F)c2)cc(OC)c1OC [Compound 73, 3′,4′,5′-trimethoxyphenyl 3-acetamido-5-trifluoromethylbenzoate] | 29.0
18 | COc1ccc(NC(=O)c2ccc(OC)c(NC(C)C)c2)cc1 [Compound 43] | 26.4
19 | COc1ccc(C(=O)Sc2cc(OC)c(OC)c(OC)c2)cc1NC(=O)C(C)Cl (centres unmarked) [Compound 15] | 19.4
20 | COc1ccc(C(=O)Oc2cc(OC)c(OC)c(OC)c2)cc1NC(=O)CF [Compound 18] | 34.5
21 | COc1ccc(C(=O)Nc2ccc(OC)c(OC)c2)cc1NS(C)(=O)=O [Compound 102] | 10.3
22 | CNc1cc(C(=O)Nc2cc(OC)cc(OC)c2)ccc1OC [Compound 40, N-(3′,5′-dimethoxyphenyl)-3-methylamino-4-methoxybenzamide] | 12.7
23 | COc1ccc(C(=O)Nc2cc(OC)c(OC)c(OC)c2)cc1C#N [Compound 68, N-(3′,4′,5′-trimethoxyphenyl)-3-cyano-4-methoxybenzamide] | 9.8
24 | CCC(=O)Nc1cc(C(=O)Nc2ccc(OC)c(S(N)(=O)=O)c2)ccc1OC [Compound 97] | 6.4

Row | Structure (SMILES) | hA3G up-regulation activity (%)
25 | CCC(=O)Nc1cc(C(=O)Nc2ccncn2)ccc1OC [Compound 61, N-(pyrimidyl-4′-)-4-methoxy-3-propionamidobenzamide] | 11.8
26 | COc1ccc(C(=O)Nc2cc(OC)c(OC)c(OC)c2)cc1NC(C)=O [Compound 11] | 22.2
27 | COc1ccc(C(=O)Oc2cc(OC)c(OC)c(OC)c2)cc1NC(=O)CCl [Compound 27] | 32.1
28 | CCC(=O)Nc1cc(C(=O)Nc2ccnc(O)c2)ccc1OC [Compound 51] | 0.9
29 | CCC(=O)Nc1cc(C(=O)Nc2ccc(OC(F)(F)F)cc2)ccc1F [Compound 70] | 24.7
30 | CCC(=O)Nc1cc(C(=O)Nc2ccc(N)c(F)c2)ccc1OC [Compound 80, N-(3′-fluoro-4′-aminophenyl)-3-propionamido-4-methoxybenzamide] | 37.1
31 | COc1ccc(C(=O)Sc2cc(OC)c(OC)c(OC)c2)cc1NC(=O)CF [Compound 19] | 44.3
32 | COc1ccc(C(=O)Cc2cc(OC)c(OC)c(OC)c2)cc1NC(C)=O [Compound 13] | 42.1
33 | CCC(=O)Nc1cc(OC(=O)c2cc(OC)c(OC)c(OC)c2)ccc1OC [Compound 62] | 40.1
34 | CCNc1cc(C(=O)Nc2ccc(OC)c(OC)c2)ccc1OC [Compound 36] | 8.6
35 | COc1ccc(C(=O)Nc2cc(OC)c(OC)c(OC)c2)cc1NC(=O)C(C)Cl (centres unmarked) [Compound 14] | 11.2
36 | COc1ccc(S(=O)(=O)Nc2cc(OC)c(OC)c(OC)c2)cc1N [Compound 85, N-(3′,4′,5′-trimethoxyphenyl)-3-amino-4-methoxybenzenesulfonamide] | 6.8
37 | COc1ccc(C(=O)Nc2cc(OC)c(OC)c(OC)c2)cc1NC(=O)CCl [Compound 1, N-(3′,4′,5′-trimethoxyphenyl)-3-(2-chloroacetamido)-4-methoxybenzamide] | 36.3
38 | COc1ccc(C(=O)Cc2cc(OC)c(OC)c(OC)c2)cc1N [Compound 6] | 28.7
39 | CCC(=O)Nc1cc(C(=O)Nc2cc(OC)c(NC)c(OC)c2)ccc1OC [Compound 81] | 14.4
40 | CCC(=O)Nc1cc([S+]([O-])Nc2cc(OC)c(OC)c(OC)c2)ccc1OC (centres unmarked) [Compound 82] | 28.5
41 | CCC(=O)Nc1cc(S(=O)(=O)Nc2ccc(NC)c(OC)c2)ccc1OC [Compound 96] | 6.9
42 | CCC(=O)Nc1cc(NNc2cc(OC)c(OC)c(OC)c2)ccc1OC [Compound 89] | 31.3
43 | COc1ccc(S(=O)(=O)Nc2cc(OC)c(OC)c(OC)c2)cc1O [Compound 90] | 28.2
44 | COc1ccc(C(=O)Oc2cc(OC)c(OC)c(OC)c2)cc1NC(=O)CBr [Compound 30] | 15.2
45 | CCC(=O)Nc1cc(C(=O)Nc2ccc([N+](=O)[O-])cc2)ccc1OC [Compound 2612, N-(4′-nitrophenyl)-3-propionamido-4-methoxybenzamide] | 22.3
46 | COc1ccc(C(=O)Oc2cc(OC)c(OC)c(OC)c2)cc1NC(=O)C(F)(F)F [Compound 353, 3,4,5-trimethoxyphenyl 3-trifluoroacetamido-4-methoxybenzoate] | 39.0
47 | CCC(=O)Nc1cc(OC)ccc1C(=O)Nc1cc(OC)c(OC)c(OC)c1 [Compound 63, N-(3′,4′,5′-trimethoxyphenyl)-2-propionamido-4-methoxybenzamide] | 21.3
